Patent US9951063B2, “8-(piperazin-1-yl)-1,2,3,4-tetrahydro-isoquinoline derivatives” (IDORSIA PHARMACEUTICALS LTD, priority 2014, dated 2018)
pIC50: −log10 of the molar value.

The compounds below were run against human CXCR3A (Homo sapiens (Human), UniProt P49682) (assay: FLIPR assay (inhibition of CXCL10-induced calcium signal)). Details: engineered CHO-K1 cells expressing human CXCR3A coupled to Galpha(16); Fluo-4-AM; CXCL10 agonist 20 nM; mean values where determined several times.
Format: cell-based
Procedure: The bioactivity of compounds is tested in a fluorometric imaging plate reader (FLIPR: Molecular Devices) using engineered CHO-K1 cells expressing the human CXCR3A (GenBank: AY242128) coupled to a G protein (Galpha(16)). Cells are plated the day prior to bioassay in F12 medium supplemented with 10% FBS and G418 and hygromycin antibiotics to maintain recombinant selection. At the day of bioassay, cells are washed and dye loaded for one hour with Fluo-4-AM (Invitrogen) in Hanks Balanced Salt Solution (Invitrogen), buffered with 20 mM Hepes at pH 7.4 and sodium bicarbonate (0.038%), containing 5 mM probenecid. This buffer, but lacking the dye and containing probenecid at a concentration of 2.5 mM, is also used for washing steps (wash buffer); or lacking both dye and probenecid but supplemented with 0.1% BSA for compound dilution steps (dilution buffer). Cells are washed free of excess dye and 60 microliter of wash buffer is added. Stock solutions of test compounds are made up at a concentration of 10 mM in DMSO, and serially diluted in dilution buffer to concentrations required for inhibition dose response curves. After a 10 minute incubation period at 37° C., 10 microliters of each compound dilution are transferred from a compound plate to the plate containing the recombinant cells in the FLIPR instrument according to the manufacturer's instructions. Following basal readings, 10 microliter CXCL10 agonist at a concentration of 20 nM (from Peprotech) is added, again using the FLIPR instrument. Changes in fluorescence are monitored before and after addition of the test compounds. Emission peak values above base level after CXCL10 addition are exported after base line subtraction.
The calculated IC50 values may fluctuate depending on the daily assay performance. Fluctuations of this kind are known to those skilled in the art. In the case where IC50 values have been determined several times for the same compound, mean values are given.

Chain of human CXCR3A (P49682 whole entry): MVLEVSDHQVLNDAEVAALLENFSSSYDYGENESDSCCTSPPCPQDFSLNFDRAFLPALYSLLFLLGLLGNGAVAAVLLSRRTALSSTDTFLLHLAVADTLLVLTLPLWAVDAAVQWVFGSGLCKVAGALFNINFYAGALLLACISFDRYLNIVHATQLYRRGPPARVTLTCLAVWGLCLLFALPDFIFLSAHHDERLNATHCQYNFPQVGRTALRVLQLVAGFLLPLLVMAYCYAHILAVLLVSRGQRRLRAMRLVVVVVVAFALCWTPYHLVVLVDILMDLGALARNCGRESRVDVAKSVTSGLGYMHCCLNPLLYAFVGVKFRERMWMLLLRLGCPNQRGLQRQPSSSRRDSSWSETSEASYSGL

In order of falling pIC50:
1. CCOc1ncc(N2CCc3c(C(F)(F)F)ccc(N4CCN(C(=O)Cn5cnc6cccnc65)CC4)c3C2)cn1 [Example 28, 1-{4-[2-(2-Ethoxy-pyrimidin-5-yl)-5-trifluoromethyl-1,2,3,4-tetrahydro-isoquinolin-8-yl]-piperazin-1-yl}-2-imidazo[4,5-b]pyridin-3-yl-ethanone]  8.62
2. COc1ncc(N2CCc3c(C(F)(F)F)ccc(N4CCN(C(=O)Cn5nc(C)cc5C)[C@H](C)C4)c3C2)cn1 [Example 24, 2-(3,5-Dimethyl-pyrazol-1-yl)-1-{(R)-4-[2-(2-methoxy-pyrimidin-5-yl)-5-trifluoromethyl-1,2,3,4-tetrahydro-isoquinolin-8-yl]-2-methyl-piperazin-1-yl}-ethanone]  8.43
3. Cc1nc(C)n(CC(=O)N2CCN(c3ccc(C(F)(F)F)c4c3CN(c3cnc(C5CC5)nc3)CC4)C[C@H]2C)n1 [Example 46, 1-{(R)-4-[2-(2-Cyclopropyl-pyrimidin-5-yl)-5-trifluoromethyl-1,2,3,4-tetrahydro-isoquinolin-8-yl]-2-methyl-piperazin-1-yl}-2-(3,5-dimethyl-[1,2,4]triazol-1-yl)-ethanone]  8.36
4. CCOc1ncc(N2CCc3c(C(F)(F)F)ccc(N4CCN(C(=O)Cn5ccc(C)n5)[C@@H](C)C4)c3C2)cn1 [Example 36, 1-{(S)-4-[2-(2-Ethoxy-pyrimidin-5-yl)-5-trifluoromethyl-1,2,3,4-tetrahydro-isoquinolin-8-yl]-2-methyl-piperazin-1-yl}-2-(3-methyl-pyrazol-1-yl)-ethanone]  8.20
5. Cc1nc(C)n(CC(=O)N2CCN(c3ccc(C(F)(F)F)c4c3CN(c3nc(C(F)(F)F)cs3)CC4)C[C@H]2C)n1 [Example 42, 2-(3,5-Dimethyl-[1,2,4]triazol-1-yl)-1-{(R)-2-methyl-4-[5-trifluoromethyl-2-(4-trifluoromethyl-thiazol-2-yl)-1,2,3,4-tetrahydro-isoquinolin-8-yl]-piperazin-1-yl}-ethanone]  8.08
6. CCOc1ncc(N2CCc3c(C(F)(F)F)ccc(N4CCN(C(=O)Cn5cc6cccnc6n5)CC4)c3C2)cn1 [Example 32, 1-{4-[2-(2-Ethoxy-pyrimidin-5-yl)-5-trifluoromethyl-1,2,3,4-tetrahydro-isoquinolin-8-yl]-piperazin-1-yl}-2-pyrazolo[3,4-b]pyridin-2-yl-ethanone]  8.01
7. CCOc1ncc(N2CCc3c(C(F)(F)F)ccc(N4CCN(C(=O)CN5C(=O)Cc6ccccc65)CC4)c3C2)cn1 [Example 33, 1-(2-{4-[2-(2-Ethoxy-pyrimidin-5-yl)-5-trifluoromethyl-1,2,3,4-tetrahydro-isoquinolin-8-yl]-piperazin-1-yl}-2-oxo-ethyl)-1,3-dihydro-indol-2-one]  7.96
8. CCOc1ncc(N2CCc3c(C(F)(F)F)ccc(N4CCN(C(=O)Cn5ncc6cccnc65)CC4)c3C2)cn1 [Example 31, 1-{4-[2-(2-Ethoxy-pyrimidin-5-yl)-5-trifluoromethyl-1,2,3,4-tetrahydro-isoquinolin-8-yl]-piperazin-1-yl}-2-pyrazolo[3,4-b]pyridin-1-yl-ethanone]  7.94
9. Cc1ccn(CC(=O)N2CCN(c3ccc(C(F)(F)F)c4c3CN(c3nc(C(F)(F)F)cs3)CC4)C[C@H]2C)n1 [Example 44, 2-(3-Methyl-pyrazol-1-yl)-1-{(R)-2-methyl-4-[5-trifluoromethyl-2-(4-trifluoromethyl-thiazol-2-yl)-1,2,3,4-tetrahydro-isoquinolin-8-yl]-piperazin-1-yl}-ethanone]  7.92
10. Cc1ccnn1CC(=O)N1CCN(c2ccc(C(F)(F)F)c3c2CN(c2nc(C(F)(F)F)cs2)CC3)C[C@H]1C [Example 45, 2-(5-Methyl-pyrazol-1-yl)-1-{(R)-2-methyl-4-[5-trifluoromethyl-2-(4-trifluoromethyl-thiazol-2-yl)-1,2,3,4-tetrahydro-isoquinolin-8-yl]-piperazin-1-yl}-ethanone]  7.90
11. CCOc1ncc(N2CCc3c(C(F)(F)F)ccc(N4CCN(C(=O)Cn5nc(C)nc5C)CC4)c3C2)cn1 [Example 30, 2-(3,5-Dimethyl-[1,2,4]triazol-1-yl)-1-{4-[2-(2-ethoxy-pyrimidin-5-yl)-5-trifluoromethyl-1,2,3,4-tetrahydro-isoquinolin-8-yl]-piperazin-1-yl}-ethanone]  7.86
12. Cc1nc(C)n(CC(=O)N2CCN(c3ccc(C(F)(F)F)c4c3CN(c3nc5ccc(F)cc5s3)CC4)C[C@H]2C)n1 [Example 38, 2-(3,5-Dimethyl-[1,2,4]triazol-1-yl)-1-{(R)-4-[2-(6-fluoro-benzothiazol-2-yl)-5-trifluoromethyl-1,2,3,4-tetrahydro-isoquinolin-8-yl]-2-methyl-piperazin-1-yl}-ethanone]  7.80
13. CCOc1ncc(N2CCc3c(C(F)(F)F)ccc(N4CCN(C(=O)Cn5cnc6cccnc65)[C@@H](C)C4)c3C2)cn1 [Example 34, 1-{(S)-4-[2-(2-Ethoxy-pyrimidin-5-yl)-5-trifluoromethyl-1,2,3,4-tetrahydro-isoquinolin-8-yl]-2-methyl-piperazin-1-yl}-2-imidazo[4,5-b]pyridin-3-yl-ethanone]  7.78
14. COc1ncc(N2CCc3c(C(F)(F)F)ccc(N4CCN(C(=O)Cn5cccn5)[C@H](C)C4)c3C2)cn1 [Example 25, 1-{(R)-4-[2-(2-Methoxy-pyrimidin-5-yl)-5-trifluoromethyl-1,2,3,4-tetrahydro-isoquinolin-8-yl]-2-methyl-piperazin-1-yl}-2-pyrazol-1-yl-ethanone]  7.62
15. CCOc1ncc(N2CCc3c(C(F)(F)F)ccc(N4CCN(C(=O)Cn5nc(C)cc5C)CC4)c3C2)cn1 [Example 29, 2-(3,5-Dimethyl-pyrazol-1-yl)-1-{4-[2-(2-ethoxy-pyrimidin-5-yl)-5-trifluoromethyl-1,2,3,4-tetrahydro-isoquinolin-8-yl]-piperazin-1-yl}-ethanone]  7.52
16. CCOc1ncc(N2CCc3c(C(F)(F)F)ccc(N4CCN(C(=O)Cn5nc(C)cc5C)[C@@H](C)C4)c3C2)cn1 [Example 35, 2-(3,5-Dimethyl-pyrazol-1-yl)-1-{(S)-4-[2-(2-ethoxy-pyrimidin-5-yl)-5-trifluoromethyl-1,2,3,4-tetrahydro-isoquinolin-8-yl]-2-methyl-piperazin-1-yl}-ethanone]  7.51
17. CCOc1ncc(N2CCc3c(C(F)(F)F)ccc(N4CCN(C(=O)CN5CCc6cccnc65)[C@@H](C)C4)c3C2)cn1 [Example 37, 2-(2,3-Dihydro-pyrrolo[2,3-b]pyridin-1-yl)-1-{(S)-4-[2-(2-ethoxy-pyrimidin-5-yl)-5-trifluoromethyl-1,2,3,4-tetrahydro-isoquinolin-8-yl]-2-methyl-piperazin-1-yl}-ethanone]  7.51
18. C[C@@H]1CN(c2ccc(C(F)(F)F)c3c2CN(c2nc(C(F)(F)F)cs2)CC3)CCN1C(=O)Cn1ncc2cccnc21 [Example 43, 1-{(R)-2-Methyl-4-[5-trifluoromethyl-2-(4-trifluoromethyl-thiazol-2-yl)-1,2,3,4-tetrahydro-isoquinolin-8-yl]-piperazin-1-yl}-2-pyrazolo[3,4-b]pyridin-1-yl-ethanone]  7.41
19. Cc1ccn(CC(=O)N2CCN(c3ccc(C(F)(F)F)c4c3CN(c3nc5ccc(F)cc5s3)CC4)C[C@H]2C)n1 [Example 40, 1-{(R)-4-[2-(6-Fluoro-benzothiazol-2-yl)-5-trifluoromethyl-1,2,3,4-tetrahydro-isoquinolin-8-yl]-2-methyl-piperazin-1-yl}-2-(3-methyl-pyrazol-1-yl)-ethanone]  7.31
20. Cc1ccnn1CC(=O)N1CCN(c2ccc(C(F)(F)F)c3c2CN(c2nc4ccc(F)cc4s2)CC3)C[C@H]1C [Example 41, 1-{(R)-4-[2-(6-Fluoro-benzothiazol-2-yl)-5-trifluoromethyl-1,2,3,4-tetrahydro-isoquinolin-8-yl]-2-methyl-piperazin-1-yl}-2-(5-methyl-pyrazol-1-yl)-ethanone]  7.29
21. C[C@@H]1CN(c2ccc(C(F)(F)F)c3c2CN(c2nc4ccc(F)cc4s2)CC3)CCN1C(=O)Cn1ncc2cccnc21 [Example 39, 1-{(R)-4-[2-(6-Fluoro-benzothiazol-2-yl)-5-trifluoromethyl-1,2,3,4-tetrahydro-isoquinolin-8-yl]-2-methyl-piperazin-1-yl}-2-pyrazolo[3,4-b]pyridin-1-yl-ethanone]  7.13
22. COc1ncc(N2CCc3c(C(F)(F)F)ccc(N4CCN(C(=O)Cn5nccn5)[C@H](C)C4)c3C2)cn1 [Example 26, 1-{(R)-4-[2-(2-Methoxy-pyrimidin-5-yl)-5-trifluoromethyl-1,2,3,4-tetrahydro-isoquinolin-8-yl]-2-methyl-piperazin-1-yl}-2-[1,2,3]triazol-2-yl-ethanone]  7.01
23. COc1ncc(N2CCc3c(C(F)(F)F)ccc(N4CCN(C(=O)CCn5cccn5)[C@H](C)C4)c3C2)cn1 [Example 27, 1-{(R)-4-[2-(2-Methoxy-pyrimidin-5-yl)-5-trifluoromethyl-1,2,3,4-tetrahydro-isoquinolin-8-yl]-2-methyl-piperazin-1-yl}-3-pyrazol-1-yl-propan-1-one]  6.04
